Reference: patent publication US20190282673A1, “STAPHTAME ACTIVITY ON BIOFILMS” (priority 2016, published 2019)
Several values for one entry are separate records, joined by “and”; a condition that tells them apart may be missing. Equal values may be shown once.

B1: P128: anti-staphylococcal chimeric protein: phage tail associated muralytic enzyme (TAME) cell wall-degrading region plus staphylococcus-specific binding region; SEQ ID NO: 1 (protein)
chain: MSLDSLKKYNGKLPKHDPSFVQPGNRHYKYQCTWYAYNRRGQLGIPVPLWGDAADWIGGAKGAGYGVGRTPKQGACVIWQRGVQGGSPQYGHVAFVEKVLDGGKKIFISEHNYATPNGYGTRTIDMSSAIGKNAQFIYDKKLETPNTGWKTNKYGTLYKSESASFTPNTDIITRTTGPFRSMPQSGVLKAGQTIHYDEVMKQDGHVWVGYTGNSGQRIYLPVRTWNKSTNTLGVLWGTIK
modifications: P128 chimera

What was measured:
[1] = system: S. haemolyticus B9511 biofilms; experiment: MBIC and checkerboard synergy on preformed biofilm (MTT assay); type: cell-based; conditions: S. haemolyticus B9511 72 h preformed biofilm, 6 hr treatment
Protocol: (§1) […] LB supplemented with 50 μg/mL Ca^++ was used for daptomycin treatment wells. The contents of the well was aspirated out and discarded. The biofilm adhered to the wells was quantified by MTT assay as described above. In each experiment, in addition to the combination MBIC, the MBIC of each drug was also determined individually. The fractional MBIC concentrations were determined by MTT dye method as described above. The FICI and synergy was calculated.

[2] = system: S. lugdunensis B9510 biofilms; experiment: as above; type: cell-based; conditions: S. lugdunensis B9510 72 h preformed biofilm, 6 hr treatment
Protocol: as §1

[3] = system: S. epidermidis, S. lugdunensis and S. haemolyticus biofilms; experiment: CoNS biofilm eradication, crystal violet staining; type: cell-based; conditions: for Activity on preformed biofilm, crystal violet: 250 and 100 μg/mL for 4 h, all three CoNS
Protocol: Dis. 209:1469-78 was followed. Briefly, S. epidermidis, S. lugdunensis and S. haemolyticus strains were inoculated into TSB with 2% glucose and the cultures were grown overnight. The cultures were diluted 1:50 in TSB to achieve an OD600˜0.1. Two hundred micro liter of the diluted culture was added to 1.8 ml of TSB media aliquoted into each well of a 24 well plate (˜5×10^5 CFU). The plates were kept at 37° C. under static conditions for 18 h, the contents were aspirated, the wells were washed twice with 2.0 ml of 1×PBS, and 1 mL of media+1 mL of the drug was added to each well and incubated at 37° C. for 0, 2, 4, and 24 h. TSB supplemented with 50 μg/ml Ca^++ was used for daptomycin treatment wells. The contents were aspirated out at the stipulated time points and the wells were washed with 2 ml of 1×PBS. The wells were allowed to dry at 37° C. for 15 min and stained with 1 mL of 1% CV for 5 min. The wells were washed with 1 mL of 1×PBS, air dried and observed for intensity of blue color.
0.1% CV was used for staining biofilms. Post staining and washing steps, 1 mL 30% acetic acid is added to each well, incubated in RT for 5-10 min, contents in the well are mixed thoroughly and OD was read at 570 nm.

[4] = system: S. epidermidis B9470 persisters; experiment: P128 and antibiotic activity on persisters (CFU); type: cell-based, Staphylococcus epidermidis; conditions: 1×MIC, P128 1 h, antibiotics 6 h
Protocol: Persisters were generated as above were treated with P128 and antibiotics (Ref: Gutiérrez, et al. (2014) Effective Removal of Staphylococcal Biofilms by the Endolysin LysH5 PLoS One 9(9): e107307).
To 450 μL aliquots, P128. Daptomycin and Vancomycin (in saline) were added (individually) each at 1×MIC Conc., and another 450 μL aliquot was taken as control. The persister samples treated with P128 were incubated for 1 h, 37° C., and 200 rpm and those treated with antibiotics were incubated for 6 h, 37° C., and 200 rpm. After incubation samples were serially log diluted and plated.

[5] = system: S. aureus MW2 biofilms on catheters; experiment: Preformed biofilms on catheters, safranin staining and SEM; type: cell-based, Staphylococcus aureus; conditions: 18 hrs; P128 8 μg/mL (1×MIC); vancomycin 90 μg/mL (90×MIC); daptomycin 10 μg/mL (10×MIC)
Protocol: To study the efficacy of P128 on biofilms on catheters, an overnight-grown culture of S. aureus MW2 was diluted 1:40 in TSB containing 5% rabbit plasma. Catheter (JMS Infusion set) pieces of 1-2 cm size were cut, slit into two halves and added to the culture. The cultures with catheter pieces were incubated at 37° C. with shaking at 100 rpm for 24 h. Post incubation, the catheters were removed and rinsed twice in PBS to remove the adhering planktonic cells. The biofilms on catheters were challenged with 8, 4, 2 and 1 μg/mL of P128 or 15, 30 and 90 μg/mL of vancomycin or 10 μg/mL of daptomycin (with 50 μg/mL CaCl2) by transferring the catheter pieces into tubes containing the drugs. The tubes were incubated at 37° C. under static conditions for 18 hrs. The catheters were then removed from the tubes, rinsed once in PBS, and immersed in 0.1% safranin for 5 min. The stained catheters were washed once in PBS and allowed to dry. After drying, samples were fixed on aluminum stubs with double sided carbon adhesive tape, coated with 5-7 nm thickness gold using a sputter-coating system (Quorum Technologies; Q150T) and examined by SEM (Carl Zeiss; Neon 40) for the presence of biofilm structures.

[6] = system: S. epidermidis B9470 biofilms on catheters; experiment: as above; type: cell-based, Staphylococcus epidermidis; conditions: 18 hrs; P128 8 μg/mL (1×MIC); vancomycin 30 μg/mL (30×MIC)
Protocol: In order to simulate the in vivo conditions for biofilm formation in device associated infections, S. epidermidis B9470 was allowed to form biofilms on the surface of catheters. An overnight-grown culture was diluted 1:40 in TSB containing 4% sodium chloride. Catheter (JMS Infusion set) pieces of 1-2 cm size were cut, slit into two halves and added to the culture. The cultures with catheter pieces were incubated at 37° C. with shaking at 100 rpm for 42 h. Post incubation, the catheters were removed and rinsed twice in PBS to remove the adhering planktonic cells. The biofilms on catheters were challenged with 8 μg/mL of P128 or 30 μg/mL of vancomycin by transferring the catheter pieces into tubes containing the drugs. The tubes were incubated at 37° C. under static conditions for 18 hrs. The catheters were then removed from the tubes, rinsed once in PBS, and immersed in 0.1% safranin [a dye that stains cell wall of bacteria] for 5 min. The stained catheters were washed once in PBS and allowed to dry. After drying, samples were fixed on aluminum stubs with double sided carbon adhesive tape, coated with 5-7 nm thickness gold using a sputter-coating system (Quorum Technologies; Q150T) and examined by SEM (Carl Zeiss. Neon 40) for the presence of biofilm structures.

| Molecule | MBIC (drug alone) [1] | MBIC (drug alone) [2] | Activity on preformed biofilm, crystal violet [3] | CFU/mL after treatment of persisters ([4]; B9470 Daptomycin persisters) | CFU/mL after treatment of persisters ([4]; B9470 Vancomycin persisters) | Effect on catheter biofilm (safranin/SEM) [5] | Effect on catheter biofilm (safranin/SEM) [6] | Removal of visual biomass ([3]; P128 8 μg/mL (1×MIC), SOC antibiotics 250×MIC or 100×MIC) | Time of treatment to eliminate the biofilms ([3]; P128 at 1×MIC (8 μg/mL)) [h] | OD570 of crystal violet vs cell control ([3]; even after 24 h, all three CoNS sp.) |
| --- | --- | --- | --- | --- | --- | --- | --- | --- | --- | --- |
| CCCCCCCCCC(=O)N[C@@H](Cc1c[nH]c2ccccc12)C(=O)N[C@H](CC(N)=O)C(=O)N[C@@H](CC(=O)O)C(=O)N[C@@H]1C(=O)NCC(=O)N[C@@H](CCCN)C(=O)N[C@@H](CC(=O)O)C(=O)N[C@H](C)C(=O)N[C@@H](CC(=O)O)C(=O)NCC(=O)N[C@H](CO)C(=O)N[C@@H]([C@H](C)CC(=O)O)C(=O)N[C@@H](CC(=O)c2ccccc2N)C(=O)O[C@@H]1C [Daptomycin, daptomycin] | >250 µg/mL | 15.6 µg/mL | poor activity | 1.3 × 10^6 CFU/mL | 2.1 × 10^2 CFU/mL | significant reduction in biofilm mass | – | – | – | – |
| CC(=O)NC[C@H]1CN(c2ccc(N3CCOCC3)c(F)c2)C(=O)O1 [Linezolid, linezolid] | >250 µg/mL | 125 µg/mL | poor activity | – | – | – | – | – | – | – |
| CN[C@H](CC(C)C)C(=O)N[C@H]1C(=O)N[C@@H](CC(N)=O)C(=O)N[C@H]2C(=O)N[C@H]3C(=O)N[C@H](C(=O)N[C@H](C(=O)O)c4cc(O)cc(O)c4-c4cc3ccc4O)[C@H](O)c3ccc(c(Cl)c3)Oc3cc2cc(c3O[C@@H]2O[C@H](CO)[C@@H](O)[C@H](O)[C@H]2O[C@H]2C[C@](C)(N)[C@H](O)[C@H](C)O2)Oc2ccc(cc2Cl)[C@H]1O [Vancomycin, vancomycin] | >250 µg/mL | 250 µg/mL | poor activity | 5 × 10^5 CFU/mL | 1.5 × 10^3 CFU/mL | minimal effect | minimal effect | – | – | – |
| B1 | 6.25 µg/mL and 12.5 µg/mL | 32 µg/mL and 16 µg/mL | – | 2.5 × 10^2 CFU/mL | 7 × 10^1 CFU/mL | eradication of the biofilm | eradication of the biofilm | removed all visual biomass | ≤ 2 | significant drop in OD |
